In general, Ki refers to a measure of affinity in units of concentration, obtained from inhibition or displacement. A lower Ki goes with higher affinity.

The values that follow come from patent US7550469B2, “Heterocyclic amide derivatives and their use as dopamine D3 receptor ligands” (Aventis Pharmaceuticals Inc., priority 2001, dated 2009).

pKi: −log10 of the molar value.

The target of the first test is T1, cloned human dopamine D3 receptors (Homo sapiens, UniProt P35462).
T1 construct: expressed in transfected cells; membrane homogenate
T1 sequence (P35462 whole entry): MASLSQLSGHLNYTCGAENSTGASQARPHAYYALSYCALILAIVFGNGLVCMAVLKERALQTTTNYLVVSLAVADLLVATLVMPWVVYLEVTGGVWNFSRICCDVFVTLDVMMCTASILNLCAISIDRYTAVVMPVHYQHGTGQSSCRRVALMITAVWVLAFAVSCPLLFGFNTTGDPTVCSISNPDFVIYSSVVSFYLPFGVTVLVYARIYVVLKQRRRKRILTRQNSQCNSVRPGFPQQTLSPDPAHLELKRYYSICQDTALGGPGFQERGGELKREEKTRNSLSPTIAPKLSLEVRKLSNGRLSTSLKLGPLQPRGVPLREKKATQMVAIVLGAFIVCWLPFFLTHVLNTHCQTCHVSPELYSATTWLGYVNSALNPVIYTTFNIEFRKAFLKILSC
The test is described as follows: [N-Methyl-3H]Spiroperidol binding to cloned human dopamine D3 receptors (Protocol 1). Conditions: D3 Ki (nM), the 25th table. In short, it runs like this:
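Radioligand displacement with [N-methyl-3H]spiroperidol used a physiological-salt Tris buffer (0.05 M, pH 7.7; NaCl 120 mM, KCl 5 mM, CaCl2 2 mM, MgCl2 1 mM) and membranes of a high-expressing stable CHO clone carrying human D3. Total ligand concentration came from measured added CPM; 0.1% ascorbic acid was optional for oxidizable compounds.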
For `O=C(NCC1CC1CN1CCC(c2noc3ccsc23)CC1)Oc1ccc(F)cc1` (stereo not drawn) [compound 831697], the Ki was 8.35 nM.

The test is the same for the next values; noted with them: Table 2; read-out: D3K1.
In the case of `O=C(NCCCCN1CCCN(c2csc3cc(F)ccc23)CC1)c1c2ccccc2cc2ccccc12` [compound 826762], the pKi is 7.24. As for `O=C(NCCCCN1CCCN(c2csc3cc(F)ccc23)CC1)c1cccc2cccnc12` [compound 817266], the pKi is 8.06. In the case of `O=C(NCCCCN1CCN(c2c(-c3ccccc3)sc3cc(F)ccc23)CC1)c1cccs1` [compound 815879], the pKi was 6.53. As for `O=C(N[C@H](CO)CCCN1CCN(c2csc3cc(C(F)(F)F)ccc23)CC1)c1ccc(-c2ccccc2)cc1` [compound 815694], the pKi is 6.71. For `O=C(NCC(CO)CCN1CCN(c2csc3cc(C(F)(F)F)ccc23)CC1)c1c(F)cc(F)cc1F` (stereo not drawn) [818923ES], the pKi was 6.50. In the case of `O=C(NCCCN1CCCN(c2csc3cc(F)ccc23)CC1)c1cccc(F)c1` [compound 827142], the pKi was 7.00. As to `O=C(NCCCCN1CCN(c2c(-c3ccccc3)sc3cc(F)ccc23)CC1)c1cccc(F)c1` [compound 815870], the pKi is 7.55. The same measure, in the same setting: then `Cc1ccc2cc(C(=O)NCCCCN3CCCN(c4csc5cc(F)ccc45)CC3)oc2c1` [compound 827130], with 7.81; and `O=C(NCC(CO)CCN1CCN(c2csc3cc(C(F)(F)F)ccc23)CC1)c1cc2ccccc2[nH]1` (stereo not drawn) [818930ES], with 7.10; and `O=C(NCCC(CO)CN1CCN(c2csc3cc(C(F)(F)F)ccc23)CC1)c1ccc2[nH]ccc2c1` (stereo not drawn) [818620ES], with 6.61.

Staying with this test, now noted: read-out: D3K1.
Turning to `O=C(NCCCCCCN1CCN(c2csc3cc(C(F)(F)F)ccc23)CC1)c1ccc(OC(F)(F)F)cc1` [compound 826749], the pKi was 8.06.

Consider `COc1cccc(C(=O)NC/C=C/CN2CCN(c3csc4cc(C(F)(F)F)ccc34)CC2)c1` [compound 827722], for which the pKi is 7.23. For `CC1(C)C(CNC(=O)C2CC2c2ccccc2)C1CN1CCN(c2csc3cc(C(F)(F)F)ccc23)CC1` (mixture of isomers) [compound 826283], the pKi is 8.17. With `O=C(N[C@H](CO)CCCN1CCN(c2csc3cc(C(F)(F)F)ccc23)CC1)c1ccc(-c2ccccc2)cc1` [compound 815694], the pKi is 6.71. Take `O=C(NCCCCCN1CCN(c2csc3cc(C(F)(F)F)ccc23)CC1)c1ccc2cc[nH]c2c1` [compound 826800]: the pKi is 7.57. With `O=C(NCCCCN1CCN(c2c(Cl)sc3cc(F)ccc23)CC1)c1ccc(F)cc1F` [compound 815053], the pKi is 8.24. The same measure, in the same setting: then `COc1ccc2[nH]c(C(=O)NC[C@@H]3CCCC[C@H]3CN3CCN(c4csc5cc(C(F)(F)F)ccc45)CC3)cc2c1` [compound 826284], with 7.11; and `O=C(NCCCCCCN1CCN(c2csc3cc(C(F)(F)F)ccc23)CC1)c1cccc2[nH]ccc12` [compound 826741], with 8.01; and `Cc1ccc(C(=O)N[C@@H](CO)CCCN2CCN(c3csc4cc(C(F)(F)F)ccc34)CC2)cc1` [compound 815671], with 6.51. Consider `O=C(NCCCCN1CCN(c2csc3cc(C(F)(F)F)ccc23)CC1)c1ccc(-c2ccccc2)cc1` [compound 815547], for which the pKi is 8.36. The same measure, in the same setting: then `COc1ccc(C(=O)NCCCCN2CCN(c3csc4cc(C(F)(F)F)ccc34)CC2)cc1OC` [compound 815550], with 8.16. Still for that read-out and setting: then `O=C(COc1ccccc1)NC/C=C\CN1CCN(c2csc3cc(C(F)(F)F)ccc23)CC1` [compound 826347], with 7.17.

The same test, now with this note: the 13th table, unit inferred; read-out: D3Ki.
On to `O=C(NCCCCCN1CCC(c2noc3ccsc23)CC1)C1CCCC1` [compound 816205], for which the pKi was 6.34. Consider `O=C(NCCCCCN1CCCN(c2csc3cc(F)ccc23)CC1)c1cccs1` [S984485], for which the pKi is 7.50. Same read-out and setting: then `O=C(Cc1cc2ccccc2s1)NCCCCCN1CCC(c2noc3ccsc23)CC1` [compound 816206], with 6.30; and `O=C(NCCCCCN1CCCN(c2csc3cc(F)ccc23)CC1)c1ccc2[nH]ccc2c1` [S984509], with 7.92. On the same count and under the same terms, then `O=C(NCCCCN1CCC(c2noc3ccsc23)CC1)c1ccc(Cl)cc1` [compound 815151], with 6.87; and `Cc1ccc(Sc2cc(C(=O)NCCCCN3CCCN(c4csc5cc(C(F)(F)F)ccc45)CC3)ccn2)cc1` [S980659], with 6.96.

Take `O=C(Cc1ccccc1Br)NCCCCN1CCCN(c2csc3cc(F)ccc23)CC1` [S982512]: the pKi was 8.24. As for `O=C(NCCCCN1CCCN(c2csc3cc(C(F)(F)F)ccc23)CC1)c1cccc2ccccc12` [S980631], the pKi is 7.00.

For the compound `O=C(NCCCCN1CCCN(c2csc3cc(C(F)(F)F)ccc23)CC1)c1ccc(C(F)(F)F)cc1` [S980644], the pKi was 6.24. For the compound `CS(=O)(=O)c1ccc(CC(=O)NCCCCN2CCCN(c3csc4cc(F)ccc34)CC2)cc1` [S982511], the pKi is 7.92. With `O=C(NCCCCCN1CCC(c2noc3ccsc23)CC1)c1ccc(Cl)cc1` [compound 816199], the pKi is 6.80.

For `O=C(NCCCCCN1CCC(c2noc3ccsc23)CC1)c1ccccc1C(F)(F)F` [compound 816211], the pKi is 6.65. `CS(=O)(=O)c1sc(C(=O)NCCCCCN2CCCN(c3csc4cc(F)ccc34)CC2)c2c1CCC=C2` [S984496]: the pKi was 8.07. With `O=C(NCCCCCN1CCCN(c2csc3cc(F)ccc23)CC1)c1ccc(OC(F)(F)F)cc1` [S9894488], the pKi was 7.62. As for `O=C(NCCCCCN1CCCN(c2csc3cc(F)ccc23)CC1)c1sccc1-n1cccc1` [S984499], the pKi was 7.55. Consider `O=C(NCCCCN1CCCN(c2csc3cc(F)ccc23)CC1)c1cccc2[nH]ccc12` [S977823], for which the pKi was 8.40. With `O=C(NCCCCN1CCCN(c2csc3cc(F)ccc23)CC1)c1ccno1` [S981836], the pKi is 7.34.

The same test, now with this note: the 14th table; read-out: D3 Ki.
Take `O=C(NCCCCCCN1CCN(c2csc3cc(C(F)(F)F)ccc23)CC1)c1ccc(OC(F)(F)F)cc1` [compound 826749]: the pKi is 8.06. For `O=C(N[C@H](CO)CCCN1CCN(c2csc3cc(C(F)(F)F)ccc23)CC1)c1ccc(-c2ccccc2)cc1` [compound 815694], the pKi is 6.71. Same read-out and setting: then `O=C(NCCCCCN1CCN(c2csc3cc(C(F)(F)F)ccc23)CC1)c1ccc2cc[nH]c2c1` [compound 826800], with 7.57; and `Cc1ccccc1C(=O)NCCCCCN1CCN(c2csc3cc(F)ccc23)CC1` [compound 826781], with 8.00; and `O=C(NCCCCCN1CCN(c2csc3cc(F)ccc23)CC1)c1ccc(OC(F)(F)F)cc1` [compound 826777], with 8.34. With `O=C(NCCCCCCN1CCN(c2csc3cc(C(F)(F)F)ccc23)CC1)c1cccc2[nH]ccc12` [compound 826741], the pKi was 8.01. Take `Cc1ccc(C(=O)N[C@@H](CO)CCCN2CCN(c3csc4cc(C(F)(F)F)ccc34)CC2)cc1` [compound 815671]: the pKi is 6.51. Consider `O=C(NCCCCN1CCN(c2c(-c3ccccc3)sc3cc(F)ccc23)CC1)c1cccc(F)c1` [compound 815870], for which the pKi was 7.55.

The test is the same for the next values; noted with them: the 15th table; read-out: D3 Ki.
For `CCCc1ccc(C(=O)NCCCCN2C3CCC2CC(c2noc4cc(F)ccc24)C3)cc1` (stereo not drawn) [compound 816341], the pKi was 7.29. On the same count and under the same terms, then `Cc1ccc(C(=O)NCCCCN2C3CCC2CC(c2noc4ccccc24)C3)cc1` (stereo not drawn) [compound 816526], with 6.43.

Still in this test, the particulars now being: the 16th table; read-out: D3 Ki.
`O=C(NCCCCN1CCCN(c2csc3cc(F)ccc23)CC1)c1c2ccccc2cc2ccccc12` [compound 826762]: the pKi is 7.24. Consider `O=C(NCCCCN1CCCN(c2csc3cc(F)ccc23)CC1)c1cccc2cccnc12` [compound 817266], for which the pKi was 8.06. For `O=C(NCCCN1CCCN(c2csc3cc(F)ccc23)CC1)c1cccc(F)c1` [compound 827142], the pKi was 7.00. Same read-out and setting: then `Cc1ccc2cc(C(=O)NCCCCN3CCCN(c4csc5cc(F)ccc45)CC3)oc2c1` [compound 827130], with 7.81.

The test is the same for the next values; noted with them: the 17th table; read-out: D3 Ki.
On to `COc1ccc(C(=O)NCC2CC2CN2CCCN(c3csc4cc(F)ccc34)CC2)cc1` (racemic) [compound 830405], for which the pKi was 8.78.

Staying with this test, now noted: the 18th table; read-out: D3 Ki.
For `O=C(NCc1sccc1CN1CCN(c2csc3cc(F)ccc23)CC1)c1ccncc1` [compound 826312], the pKi is 7.54. Same read-out and setting: then `COc1ccc2[nH]c(C(=O)NCc3sccc3CN3CCN(c4csc5cc(F)ccc45)CC3)cc2c1` [compound 826323], with 7.17. For the compound `CS(=O)(=O)c1sc(C(=O)NCc2sccc2CN2CCN(c3csc4cc(F)ccc34)CC2)c2c1C=CCC2` [compound 826315], the pKi is 7.51.

Staying with this test, now noted: the 19th table; read-out: D3 Ki.
Turning to `O=C(Nc1cccc(CN2CCN(c3csc4cc(F)ccc34)CC2)c1)c1cccc(F)c1` [compound 822164], the pKi is 6.78. Consider `COc1ccc(C(=O)Nc2cccc(CN3CCN(c4csc5cc(F)ccc45)CC3)c2)cc1OC` [compound 822180], for which the pKi is 7.58.

Staying with this test, now noted: the 21st table; read-out: D3 Ki.
Regarding `C[C@@H]1CN(c2csc3cc(F)ccc23)C[C@H](C)N1CCCCNC(=O)c1ccc(C(C)(C)C)cc1` [compound 826944], the pKi was 6.89. Consider `C[C@@H]1CN(c2csc3cc(C(F)(F)F)ccc23)C[C@H](C)N1CCCCNC(=O)c1ccc2cc[nH]c2c1` [compound 826955], for which the pKi is 7.15. `C[C@@H]1CN(c2csc3cc(F)ccc23)C[C@H](C)N1CCCCNC(=O)c1ccc(OC(F)(F)F)cc1` [compound 827049]: the pKi is 7.29. In the case of `C[C@@H]1CN(c2csc3cc(C(F)(F)F)ccc23)C[C@H](C)N1CCCCNC(=O)c1cccs1` [compound 827046], the pKi was 7.24.

The test is the same for the next values; noted with them: the 23rd table; read-out: D3 Ki.
Take `FC(F)(F)c1ccc2c(N3CCN(C[C@@H]4C[C@H]4CNCCCn4ccnc4)CC3)csc2c1` [compound 833257, (3-imidazol-1-yl-propyl)-{(1R,2R)-2-[4-(6-trifluoromethyl-benzo[b]thiophen-3-yl)-piperazin-1-ylmethyl]-cyclopropylmethyl}-amine]: the pKi was 8.58. On to `c1ccc(OCCNCC2CC2CN2CCC(c3noc4ccsc34)CC2)cc1` (racemic) [832296FH], for which the pKi was 6.90.

For the compound `CC(C)c1ccc(CNCC2CC2CN2CCN(c3csc4cc(C(F)(F)F)ccc34)CC2)cc1` (racemic) [compound 832182], the pKi was 7.01. For `COc1cccc2c(C3CCN(C[C@@H]4C[C@H]4CNCCC(C)(C)C)CC3)noc12` [compound 833433], the pKi was 6.95.

In the case of `Clc1ccc(CN2CCN(CC3CC3CN3CCC(c4noc5ccsc45)CC3)CC2)cc1Cl` (racemic) [832297GW], the pKi is 6.41.

On to `FC(F)(F)c1ccc2c(N3CCN(C[C@@H]4C[C@H]4CN4CCC(n5ccnc5)CC4)CC3)csc2c1` [compound 833349], for which the pKi is 7.64. Take `CSCCCNC[C@@H]1C[C@H]1CN1CCN(c2csc3cc(C(F)(F)F)ccc23)CC1` [compound 832280]: the pKi was 7.72.

For the compound `CCC1CCCC1NC[C@@H]1C[C@H]1CN1CCN(c2csc3cc(C(F)(F)F)ccc23)CC1` (mixture of isomers) [compound 832278], the pKi was 7.72.
